Earlier results, collected in patent US9387169B2, “Rapamycin powders for pulmonary delivery” (Civitas Therapeutics, Inc., priority 2014, dated 2016).

Conditions: amorphous form

chemical stability: extremely chemically unstable
Structure (SMILES): CO[C@H]1C[C@@H]2CC[C@@H](C)[C@@](O)(O2)C(=O)C(=O)N2CCCC[C@H]2C(=O)O[C@H]([C@H](C)C[C@@H]2CC[C@@H](O)[C@H](OC)C2)CC(=O)[C@H](C)/C=C(\C)[C@@H](O)[C@@H](OC)C(=O)[C@H](C)C[C@H](C)/C=C/C=C/C=C/1C [amorphous rapamycin, rapamycin]
